This is an account of results in a melting point compilation (Tetko et al.; mined from patent text by program, amines drawn as free bases though some values may be those of a salt).

Turning to `Fc1cccc(F)c1C1=NC(c2ccc(C#Cc3ccc(Cl)cc3)cc2)CO1` (stereo not drawn), the melting point fell in the range of 155 to 156 °C.

For the compound `OC(CCN1CC=C(c2ccc(Cl)cc2)CC1)c1cccc2ccccc12` (stereo not drawn), the melting point is 122 to 123 °C. The figure for `N#Cc1ccc(OCCCc2cn(C(c3ccccc3)(c3ccccc3)c3ccccc3)cn2)cc1` is 187 to 188 °C. The figure for `CON=Cc1c(C(=O)OC)[nH]c2c(C)ccc(C)c12` is 107 to 108 °C; for `COc1cc(-n2cccn2)ccc1-n1cc(OC)c(=O)c(-c2ccnn2-c2cccc(C(F)(F)F)c2)n1` it is 215 to 217 °C. As for `CCOC(=O)c1c(O)c2cccnc2n(Cc2ccc(OC)cc2)c1=O`, the figure is 153 °C.

The compound `Oc1ccc2[nH]cc(CCCCN3CCN(c4ccc5c(c4)CCCO5)CC3)c2c1` gave a melting point of 220 to 222 °C.

Consider `COC1Nc2c(ccc(C)c2OC(C)=O)C(=O)N2CCCC12` (stereo not drawn), for which the melting point lay in the range of 147 to 150 °C. `O=C(Nc1ccc2cc(CN3CCCC3)cnc2c1)c1ccc(-c2ccccc2)nc1` registered a melting point of 208 to 210 °C. The compound `O=P(O)(O)C(F)(F)c1ccc(CNCc2ccc(C(F)(F)P(=O)(O)O)cc2)cc1` showed a melting point of 106 to 108 °C. Consider `O=C(NCc1cccnc1)c1[nH]c2ccc(Cl)cc2c1S(=O)(=O)c1ccccc1`, for which the melting point lay within 263 to 264 °C. The compound `NC(=O)C(=O)NCCc1ccc(OCc2ccccc2)c(OCc2ccccc2)c1` showed a melting point of 187 °C. Turning to `CC12CCC3c4ccc(O)cc4CC(O)C3C1CCC2O` (stereo not drawn), the melting point lay in the range of 254 to 257 °C.

Compound `Cn1cc(Br)cc(Nc2ccc(N3CCN(CCF)CC3)cn2)c1=O` gave a melting point of 141 to 143 °C. For the compound `COCCCNS(=O)(=O)NC(=O)OCc1ccccc1`, the melting point fell in the range of 91 to 93 °C.

`NC(=O)N1C(=O)C(C(=O)c2ccc(Br)s2)c2cc(Cl)ccc21` (stereo not drawn) returned a melting point of 228 to 229 °C. The figure for `Cc1ccccc1N1CCN(Cc2n[nH]c3ccccc23)CC1` is 135 to 136 °C. The figure for `CCCc1nc(N(C)c2ccccc2)n2ncc(C(O)c3ccccc3Cl)c2n1` (stereo not drawn) is 153 to 155 °C; for `NS(=O)(=O)c1cc2cnccc2o1` it is 216 to 218 °C; for `CC(=O)NCC1CC(c2cc(F)c(-n3ccnc3)c(F)c2)=NO1` (single isomer, unassigned; (-)) it is 168 to 169 °C.

`CNC(=Nc1cccc(C(F)(F)F)c1)C(C)C` gave a melting point of 52 to 54 °C. In turn, `COc1ccc2c3c1O[C@H]1C[C@@H](O)C=C[C@@]31CCN(CCN1CCOCC1)C2` showed a melting point of 101 to 104 °C. `CC(C)c1ccc(NC=CS(=O)(=O)F)cc1` had a melting point of 41 to 43 °C. As for `CC1(C)OC(=O)C(Oc2ccc(Cl)c(Cl)c2)=C1c1ccc(S(C)(=O)=O)cc1`, the figure is 144 to 145 °C; as for `CCCCC1C(C(=O)/C=C/c2ccc(OC)cc2)C(=O)CC(c2ccc(OC)cc2)C1[N+](=O)[O-]` (stereo not drawn), 127 to 129 °C. The figure for `Cc1ncnc(C)c1C(=O)N1CC2CN(CCC(NC(=O)C3CCCC3)c3ccccc3)CC2C1` (stereo not drawn) is 48 to 49 °C; for `COC(=O)C(=C/c1ccccc1)/C(=C\c1cc(OC)c(OC)c(OC)c1)C(=O)O` it is 131 to 133 °C.

`CC(C)Cc1nn(C)c(=O)c2c(S(=O)(=O)CCCO)c(Cc3ccccc3)sc12` returned a melting point of 105 to 107 °C. As for `CN(CCCCCCCNC(=O)NCCSCc1csc(NC(=N)N)n1)CCN(Cc1ccc(F)cc1)c1ccccn1`, the melting point amounted to 125 °C.

`CC1=C(/C=C/C(C)=C/C=C/C(C)=C\C(=O)O)C(C)(C)C(=O)CC1` displayed a melting point of 178 to 179 °C. `CCCCc1nn(-c2ccccc2C(F)(F)F)c(=O)n1Cc1ccc(-c2ccccc2S(=O)(=O)NC(=O)[C@H]2CC2(C)C)cc1` displayed a melting point of 93 to 95 °C. The figure for `COC(=O)c1cccc(S(=O)(=O)N(C)C)c1CS(N)(=O)=O` is 133 to 142 °C.

For `CN(C)c1ccc(C2(CNC(=O)Nc3ccccc3CCc3cc(C(C)(C)C)c(O)c(C(C)(C)C)c3)CCCC2)cc1`, the melting point was 174 to 175 °C.

In general, melting point refers to the temperature of the solid-liquid transition.
